Among the test systems are KM20L2 colon; MCF7 breast; SF-268 CNS; MDA-MB-231 breast; EKVX NSCLC; CCRF-CEM leukemia; DMS 114 small cell lung; PC-3 prostate; OVCAR-3 ovarian; HS 578T breast.
Experiment in all cases: NCI tumour cell line growth inhibition, 48 h

The structures appear in SMILES notation.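 In this assay, cells in 96-well plates receive the compound at five concentrations for 48 hours. Endpoints are linearly interpolated between the surrounding concentrations. GI50 is the concentration that inhibits growth by half. Definition used: TGI = concentration required for complete inhibition of growth.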

As to `C=C1C(=O)O[C@@H]2C[C@@H](C)[C@@H]3C=CC(=O)[C@@]3(C)[C@@H](OC(=O)CC(=O)O[C@H]3[C@@H]4C(=C)C(=O)O[C@@H]4C[C@@H](C)[C@@H]4C=CC(=O)[C@]43C)[C@H]12`, the TGI in the experiment with KM20L2 colon was 0.237 µM; in the experiment with MCF7 breast it was 0.21 µM; in the experiment with SF-268 CNS, 0.374 µM; with MDA-MB-231 breast, 1.32 µM; in the experiment on EKVX NSCLC, 0.32 µM; in the experiment on CCRF-CEM leukemia it was 0.0376 µM. In addition, the TGI is 0.108 µM in the experiment on DMS 114 small cell lung, 0.436 µM in the experiment with PC-3 prostate and 0.159 µM in the experiment on OVCAR-3 ovarian.
On to `CC(C)CC(NC(=O)c1cccc(O)c1O)C(=O)NCc1cc(CNC(=O)C(CC(C)C)NC(=O)c2cccc(O)c2O)cc(CNC(=O)C(CC(C)C)NC(=O)c2cccc(O)c2O)c1` (configuration not stated), for which the TGI with KM20L2 colon was 21 µM; with SF-268 CNS it was above 100 µM; with EKVX NSCLC it was 69.5 µM; in the experiment on CCRF-CEM leukemia, 54 µM; with DMS 114 small cell lung, 18.4 µM; with OVCAR-3 ovarian, 19.7 µM.
Turning to `O=C1c2ccccc2C(Br)(Br)c2ccccc21`, the TGI with KM20L2 colon was above 100 µM; with SF-268 CNS, above 31.6 µM; in the experiment on EKVX NSCLC it was above 100 µM; in the experiment on CCRF-CEM leukemia it was above 31.6 µM; in the experiment with DMS 114 small cell lung, above 31.6 µM; in the experiment on OVCAR-3 ovarian it was above 31.6 µM.
Regarding `C#Cc1cccc(N2C(=O)CCC2=O)c1`, the TGI in the experiment on KM20L2 colon came out at 59 µM; in the experiment on MCF7 breast, 44.5 µM; in the experiment on SF-268 CNS, 33.1 µM; in the experiment on MDA-MB-231 breast, 44.6 µM; in the experiment on EKVX NSCLC, 34.3 µM; in the experiment on CCRF-CEM leukemia, 8.11 µM. Also, the TGI with DMS 114 small cell lung is 21.8 µM; in the experiment on PC-3 prostate, 28.6 µM; in the experiment with OVCAR-3 ovarian, 37.3 µM; in the experiment with HS 578T breast it was 85.8 µM.
Consider `CC1CCC2(CC1)NN=c1s/c(=C\c3ccc(O)cc3)c(=O)n1N2` (configuration not stated), for which the TGI with KM20L2 colon, in the experiment with SF-268 CNS, in the experiment with EKVX NSCLC, in the experiment on CCRF-CEM leukemia, with DMS 114 small cell lung and with OVCAR-3 ovarian was above 100 µM in each case.
With `c1cc(N(CCn2cccn2)CCn2cccn2)cc(N(CCn2cccn2)CCn2cccn2)c1`, the TGI with KM20L2 colon, in the experiment with SF-268 CNS, in the experiment on EKVX NSCLC, in the experiment on CCRF-CEM leukemia, in the experiment with DMS 114 small cell lung and in the experiment on OVCAR-3 ovarian was above 100 µM in each case.
Take `COc1ccc2c(CN3CCCCC3CO)cc3cc(OC)c(OC)cc3c2c1` (configuration not stated): the TGI with KM20L2 colon is 15.2 µM; with SF-268 CNS, 20.1 µM; with EKVX NSCLC, 19.7 µM; in the experiment with CCRF-CEM leukemia it was 18.8 µM; with DMS 114 small cell lung it was 15.8 µM; in the experiment with OVCAR-3 ovarian it was 19.4 µM.
For `CCCCCC(=O)C(C)C1=Nc2nnc(CCCCCCCc3nnc4n3C(=O)C(C(C)C(=O)CCCCC)=N4)n2C1=O` (configuration not stated), the TGI in the experiment with KM20L2 colon, in the experiment on SF-268 CNS, in the experiment on EKVX NSCLC, in the experiment on CCRF-CEM leukemia, in the experiment on DMS 114 small cell lung and with OVCAR-3 ovarian was above 100 µM throughout.
With `CCOC(=O)C1N(S(=O)(=O)c2ccc(C)cc2)CCC12c1ccccc1N(C(C)=O)C2c1ccc(OC)c(OC)c1` (configuration not stated), the TGI in the experiment with KM20L2 colon, with SF-268 CNS, in the experiment with EKVX NSCLC, in the experiment on CCRF-CEM leukemia, in the experiment with DMS 114 small cell lung and with OVCAR-3 ovarian was above 100 µM in each case.
For `COC(=O)/C=C1/CCC(C(=O)OC)N1` (configuration not stated), the TGI with KM20L2 colon, in the experiment with SF-268 CNS, with EKVX NSCLC, with CCRF-CEM leukemia, with DMS 114 small cell lung and in the experiment on OVCAR-3 ovarian was above 100 µM in each case.
In the case of `CC(=O)[CH-]C(C)=O.CC(=O)[CH-]C(C)=O.[CH2-]CCC.[CH2-]CCC.[Sn+4]`, the GI50 with KM20L2 colon is 1.36 µM; in the experiment on SF-268 CNS it was 0.291 µM; in the experiment on EKVX NSCLC, 0.901 µM; in the experiment with CCRF-CEM leukemia, 0.0483 µM; in the experiment on OVCAR-3 ovarian it was 0.707 µM. Besides, the TGI worked out at 2.65 µM in the experiment with KM20L2 colon; 1.2 µM with SF-268 CNS; 2.27 µM with EKVX NSCLC; 0.301 µM with DMS 114 small cell lung; 1.96 µM in the experiment on OVCAR-3 ovarian.
